IC50 data for 30 compounds are collected here from patent US10278942B2 (PELOTON THERAPEUTICS, INC., priority 2015, dated 2019).

A value given as a limit tells only on which side of the number the result lay.

The target in this assay is T1, HIF-2α HIS TAG-PASB Domain (Homo sapiens, UniProt Q99814).
T1 construct: 100 nM HIF-2α HIS TAG-PASB Domain
T1 sequence (Q99814 240-350 limits assumed): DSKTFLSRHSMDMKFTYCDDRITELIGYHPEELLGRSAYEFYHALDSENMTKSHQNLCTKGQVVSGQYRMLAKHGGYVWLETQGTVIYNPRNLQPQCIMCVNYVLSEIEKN
The assay is described as follows: HIF-2α Scintillation Proximity Assay (SPA). The format is binding. The settings on record: read-out: Scintillation Proximity Assay IC50. On the procedure:
The total assay volume was about 100 μL in the following configuration: 2 μL compound in 100% DMSO, 88 μL buffer with protein and probe and 10 μL of SPA beads. […] The percent inhibition was determined and IC50 values were calculated using the Dotmatics system based on the following equation: % inhibition=[(high control−sample)/(high control−low control)]×100.
For the compound `CCOCC1(COc2ccc(S(=O)(=O)C(F)(F)F)c3c2CC(F)(F)[C@H]3O)COC1` [Compound 708], the IC50 was > 1000 nM.

`O/N=C1/c2c(C(F)(F)F)ccc(OCCCF)c2[C@@H](F)C1(F)F` [Compound 700]: the IC50 lay within 50 to 249 nM.

As to `Cc1c(Oc2cc(F)cc(C#N)c2)ccc(S(=O)(=O)C(F)(F)F)c1Br` [Compound 141], the IC50 lay in the range of 50 to 249 nM.

For the compound `CS(=O)(=O)c1ccc(Oc2ccc(F)c(C#N)c2)c2c1[C@H](O)C(F)(F)[C@@H]2F` [Compound 327], the half-maximal inhibitory concentration (IC50) was < 50 nM.

With `O=S(=O)(c1ccc(Oc2cccc(C(F)(F)F)c2)c(Br)c1CO)C(F)F` [Compound 89], the IC50 was > 1000 nM.

As to `COc1ccc(S(=O)(=O)C(F)(F)F)c2c1CCC2O` (stereo not drawn) [Compound 588], the IC50 was > 1000 nM.

In the case of `N#CCS(=O)(=O)c1ccc(Oc2cc(F)cc(F)c2)c2c1C(O)CC2` (stereo not drawn) [Compound 14], the concentration for half-maximal inhibition (IC50) was > 1000 nM.

Consider `N#Cc1cc(F)cc(Oc2ccc(S(=O)(=O)C(F)(F)F)c(Cl)c2C#N)c1` [Compound 29], for which the IC50 is < 50 nM.

As to `N#Cc1cc(F)cc(Oc2ccc3c(c2Br)[C@@H](O)C(F)(F)S3(=O)=O)c1` [Compound 347], the concentration for half-maximal inhibition (IC50) is < 50 nM.

Regarding `COCCOc1ccc(S(=O)(=O)C(F)(F)F)c2c1CCC2O` (stereo not drawn) [Compound 599], the IC50 is > 1000 nM.

As to `N#Cc1cncc(Oc2ccc(S(N)(=O)=O)c3c2[C@@H](F)C(F)(F)[C@H]3O)c1` [Compound 340], the IC50 was < 50 nM.

Regarding `N=S1(=O)c2ccc(Oc3cc(F)cc(F)c3)c(Br)c2C(O)C1(F)F` (stereo not drawn) [Compound 378], the IC50 is 50 to 249 nM.

Consider `O=S(=O)(c1ccc(Oc2cc(F)cc(CO)c2)c(Br)c1)C(F)(F)F` [Compound 177], for which the IC50 was > 1000 nM.

`Cn1nccc1-c1ccc(S(=O)(=O)C(F)(F)F)c2c1CC(F)(F)[C@H]2O` [Compound 559]: the IC50 was > 1000 nM.

`CC(Oc1ccc(S(=O)(=O)C(F)(F)F)c2c1CC(F)(F)C2O)C(=O)O` (stereo not drawn) [Compound 646]: the IC50 was > 1000 nM.

On to `CNC(=O)C(C)Oc1ccc(S(=O)(=O)C(F)(F)F)c2c1CC(F)(F)C2O` (stereo not drawn) [Compound 645], for which the IC50 is > 1000 nM.

For the compound `C=CCC1(O)c2c(S(=O)(=O)C(F)F)ccc(Oc3cc(F)cc(F)c3)c2CC1(F)F` (stereo not drawn) [Compound 12], the IC50 was > 1000 nM.

Take `O=S(=O)(c1ccc(Oc2cncc(Cl)c2)c2c1[C@H](O)CC2)C(F)(F)F` [Compound 184]: the IC50 was 250 to 1000 nM.

Turning to `CC1(C)C=C(c2ccc(S(=O)(=O)C(F)(F)F)c3c2CC(F)(F)[C@H]3O)C(=O)CC1` [Compound 541], the IC50 was > 1000 nM.

On to `CS(=O)(=O)c1ccc(Oc2cc(F)cc(Cl)c2)c(C#N)c1` [Compound 139], for which the IC50 is > 1000 nM.

Consider `CC1(O)c2c(ccc(Oc3cc(F)cc(C#N)c3)c2C(F)F)S(=O)(=O)C1(F)F` (stereo not drawn) [Compound 442], for which the IC50 lay within 50 to 249 nM.

Regarding `O=S(=O)(c1ccc(CO)c2c1[C@H](O)C(F)(F)C2)C(F)(F)F` [Compound 537], the IC50 was > 1000 nM.

In the case of `O=S(=O)(c1ccc(OCCCO)c2c1C(O)CC2)C(F)(F)F` (stereo not drawn) [Compound 611], the IC50 is > 1000 nM.

For the compound `CS(=O)(=O)c1ccc(Oc2cncc(Cl)c2)c2c1[C@H](O)C(F)(F)[C@H]2F` [Compound 332], the IC50 is > 1000 nM.

Turning to `Cc1cc(C)cc(Oc2ccc(S(=O)(=O)C(F)(F)F)cc2Br)c1` [Compound 173], the IC50 is > 1000 nM.

For `CS(=O)(=O)c1ccc(OC2CC2)c2c1[C@H](O)C(F)(F)[C@@H]2F` [Compound 773], the IC50 is > 1000 nM.

Take `N=S1(=O)CC(O)c2c1ccc(Oc1cc(F)cc(F)c1)c2C(F)F` (stereo not drawn) [Compound 396]: the IC50 is > 1000 nM.

In the case of `CS(=O)(=O)c1ccc(O[C@H]2CC[C@@H](C#N)CC2)c2c1[C@H](O)C(F)(F)[C@@H]2F` [Compound 758], the IC50 is > 1000 nM.

For the compound `O=S1(=O)CCc2c1ccc(Oc1cc(F)cc(Cl)c1)c2Br` [Compound 350], the IC50 is > 1000 nM.

With `CC1(O)c2c(S(=O)(=O)C(F)F)ccc(Oc3cc(F)cc(C#N)c3)c2CC1(F)F` (stereo not drawn) [Compound 13], the IC50 is > 1000 nM.
